Assays:
[1] = molecular target: Tyrosine-protein kinase receptor UFO (Homo sapiens) (UniProt P30530); assay: Inhibition of AXL (unknown origin) assessed as residual activity at 100 nM by KINOMEscan analysis relative to control
[2] = molecular target: Myosin-IIIa (Homo sapiens) (UniProt Q8NEV4); assay: Inhibition of MYO3A (unknown origin) assessed as residual activity at 100 nM by KINOMEscan analysis relative to control
[3] = molecular target: Serine/threonine-protein kinase WNK1 (Homo sapiens) (UniProt Q9H4A3); assay: Inhibition of WNK1 (unknown origin) assessed as residual activity at 100 nM by KINOMEscan analysis relative to control
Sequence of Serine/threonine-protein kinase WNK1 (Homo sapiens) (Q9H4A3 whole entry, looked up): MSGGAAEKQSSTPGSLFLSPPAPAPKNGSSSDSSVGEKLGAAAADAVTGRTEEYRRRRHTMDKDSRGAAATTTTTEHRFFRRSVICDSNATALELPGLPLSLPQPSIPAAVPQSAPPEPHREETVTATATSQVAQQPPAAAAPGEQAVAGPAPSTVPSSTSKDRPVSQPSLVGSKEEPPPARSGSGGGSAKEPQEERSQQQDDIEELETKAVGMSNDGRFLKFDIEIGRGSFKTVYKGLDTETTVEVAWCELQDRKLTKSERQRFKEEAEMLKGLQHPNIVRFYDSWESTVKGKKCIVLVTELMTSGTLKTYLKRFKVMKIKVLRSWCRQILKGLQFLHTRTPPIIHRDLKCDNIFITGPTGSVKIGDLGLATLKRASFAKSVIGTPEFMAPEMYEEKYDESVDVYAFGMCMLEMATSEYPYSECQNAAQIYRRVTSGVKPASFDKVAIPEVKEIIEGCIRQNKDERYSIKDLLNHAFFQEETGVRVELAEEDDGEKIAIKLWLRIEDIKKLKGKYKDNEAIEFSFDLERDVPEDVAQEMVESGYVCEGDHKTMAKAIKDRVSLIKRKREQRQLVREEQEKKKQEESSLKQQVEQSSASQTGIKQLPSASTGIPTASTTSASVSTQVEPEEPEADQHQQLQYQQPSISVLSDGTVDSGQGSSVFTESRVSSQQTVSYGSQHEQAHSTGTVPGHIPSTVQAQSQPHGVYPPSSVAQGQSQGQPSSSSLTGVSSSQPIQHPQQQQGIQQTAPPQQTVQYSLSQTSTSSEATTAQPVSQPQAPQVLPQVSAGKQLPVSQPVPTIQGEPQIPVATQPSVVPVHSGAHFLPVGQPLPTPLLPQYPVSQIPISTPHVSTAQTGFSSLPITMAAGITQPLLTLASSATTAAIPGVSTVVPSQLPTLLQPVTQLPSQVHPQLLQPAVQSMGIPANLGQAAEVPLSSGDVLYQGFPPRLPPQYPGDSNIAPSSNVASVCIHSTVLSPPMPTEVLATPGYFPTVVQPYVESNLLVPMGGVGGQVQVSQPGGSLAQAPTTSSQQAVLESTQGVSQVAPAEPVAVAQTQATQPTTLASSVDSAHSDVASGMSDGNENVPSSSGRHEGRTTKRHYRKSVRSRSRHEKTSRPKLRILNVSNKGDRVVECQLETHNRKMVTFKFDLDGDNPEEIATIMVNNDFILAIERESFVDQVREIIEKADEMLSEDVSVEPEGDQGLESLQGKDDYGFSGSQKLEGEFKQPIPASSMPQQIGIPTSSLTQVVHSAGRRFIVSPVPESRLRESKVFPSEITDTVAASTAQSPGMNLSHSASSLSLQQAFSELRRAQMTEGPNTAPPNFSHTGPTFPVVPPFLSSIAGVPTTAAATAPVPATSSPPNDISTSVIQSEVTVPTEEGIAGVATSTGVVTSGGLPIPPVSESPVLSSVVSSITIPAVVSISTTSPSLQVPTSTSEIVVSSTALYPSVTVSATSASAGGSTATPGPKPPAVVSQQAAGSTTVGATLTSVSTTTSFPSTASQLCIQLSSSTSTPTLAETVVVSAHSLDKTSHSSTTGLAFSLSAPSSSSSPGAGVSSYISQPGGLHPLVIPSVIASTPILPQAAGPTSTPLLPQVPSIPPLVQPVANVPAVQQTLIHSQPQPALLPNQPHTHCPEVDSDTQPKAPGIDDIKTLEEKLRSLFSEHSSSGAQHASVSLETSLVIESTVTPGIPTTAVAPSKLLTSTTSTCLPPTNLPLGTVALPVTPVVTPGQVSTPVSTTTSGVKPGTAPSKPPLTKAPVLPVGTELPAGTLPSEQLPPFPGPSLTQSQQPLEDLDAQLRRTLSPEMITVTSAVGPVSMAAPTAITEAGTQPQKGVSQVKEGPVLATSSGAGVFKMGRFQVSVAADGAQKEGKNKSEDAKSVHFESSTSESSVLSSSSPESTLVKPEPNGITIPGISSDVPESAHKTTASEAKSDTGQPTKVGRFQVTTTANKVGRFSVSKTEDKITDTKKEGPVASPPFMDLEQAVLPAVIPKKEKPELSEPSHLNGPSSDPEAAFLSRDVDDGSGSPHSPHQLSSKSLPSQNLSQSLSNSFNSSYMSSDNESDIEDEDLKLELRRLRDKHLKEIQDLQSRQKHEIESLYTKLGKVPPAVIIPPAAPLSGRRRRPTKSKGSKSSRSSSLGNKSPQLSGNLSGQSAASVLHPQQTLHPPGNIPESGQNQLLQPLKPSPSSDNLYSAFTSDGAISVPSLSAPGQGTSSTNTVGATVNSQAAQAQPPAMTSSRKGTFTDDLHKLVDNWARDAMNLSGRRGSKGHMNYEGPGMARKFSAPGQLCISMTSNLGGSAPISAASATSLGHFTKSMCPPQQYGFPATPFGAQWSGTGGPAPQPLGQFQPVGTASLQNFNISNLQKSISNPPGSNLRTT

[4] = molecular target: Interleukin-1 receptor-associated kinase 1 (Homo sapiens) (UniProt P51617); assay: Inhibition of IRAK1 (unknown origin) assessed as residual activity at 100 nM by KINOMEscan analysis relative to control
Sequence of Interleukin-1 receptor-associated kinase 1 (Homo sapiens) (P51617 whole entry, looked up): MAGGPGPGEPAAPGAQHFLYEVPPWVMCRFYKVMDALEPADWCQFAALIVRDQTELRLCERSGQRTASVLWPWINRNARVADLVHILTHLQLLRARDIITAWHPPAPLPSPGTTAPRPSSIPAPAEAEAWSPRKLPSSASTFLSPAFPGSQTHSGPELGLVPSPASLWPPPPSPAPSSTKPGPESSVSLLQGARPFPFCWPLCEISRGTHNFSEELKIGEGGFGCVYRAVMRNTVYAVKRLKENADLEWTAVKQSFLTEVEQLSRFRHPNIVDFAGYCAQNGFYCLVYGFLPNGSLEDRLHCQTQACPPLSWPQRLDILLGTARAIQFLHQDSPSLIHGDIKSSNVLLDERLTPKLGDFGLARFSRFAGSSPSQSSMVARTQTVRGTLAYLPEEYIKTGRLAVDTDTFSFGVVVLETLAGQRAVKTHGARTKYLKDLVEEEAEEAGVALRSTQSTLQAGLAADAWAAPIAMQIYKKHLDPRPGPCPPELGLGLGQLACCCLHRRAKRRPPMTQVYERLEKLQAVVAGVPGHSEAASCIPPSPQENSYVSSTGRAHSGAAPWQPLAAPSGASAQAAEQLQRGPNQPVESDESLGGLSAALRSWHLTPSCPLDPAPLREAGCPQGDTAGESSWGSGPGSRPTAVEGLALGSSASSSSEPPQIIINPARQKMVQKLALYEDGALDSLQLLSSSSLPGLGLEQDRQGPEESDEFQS

[5] = test system: Receptor-type tyrosine-protein kinase FLT3 (Homo sapiens), P36888 [N841I]; assay: Inhibition of FLT3 N841I mutant (unknown origin) assessed as residual activity at 100 nM by KINOMEscan analysis relative to control
[6] = molecular target: T1, Serine/threonine-protein kinase ULK1 (Homo sapiens) (UniProt O75385); assay: Inhibition of ULK1 (unknown origin) assessed as residual activity at 100 nM by KINOMEscan analysis relative to control
T1 sequence (whole entry): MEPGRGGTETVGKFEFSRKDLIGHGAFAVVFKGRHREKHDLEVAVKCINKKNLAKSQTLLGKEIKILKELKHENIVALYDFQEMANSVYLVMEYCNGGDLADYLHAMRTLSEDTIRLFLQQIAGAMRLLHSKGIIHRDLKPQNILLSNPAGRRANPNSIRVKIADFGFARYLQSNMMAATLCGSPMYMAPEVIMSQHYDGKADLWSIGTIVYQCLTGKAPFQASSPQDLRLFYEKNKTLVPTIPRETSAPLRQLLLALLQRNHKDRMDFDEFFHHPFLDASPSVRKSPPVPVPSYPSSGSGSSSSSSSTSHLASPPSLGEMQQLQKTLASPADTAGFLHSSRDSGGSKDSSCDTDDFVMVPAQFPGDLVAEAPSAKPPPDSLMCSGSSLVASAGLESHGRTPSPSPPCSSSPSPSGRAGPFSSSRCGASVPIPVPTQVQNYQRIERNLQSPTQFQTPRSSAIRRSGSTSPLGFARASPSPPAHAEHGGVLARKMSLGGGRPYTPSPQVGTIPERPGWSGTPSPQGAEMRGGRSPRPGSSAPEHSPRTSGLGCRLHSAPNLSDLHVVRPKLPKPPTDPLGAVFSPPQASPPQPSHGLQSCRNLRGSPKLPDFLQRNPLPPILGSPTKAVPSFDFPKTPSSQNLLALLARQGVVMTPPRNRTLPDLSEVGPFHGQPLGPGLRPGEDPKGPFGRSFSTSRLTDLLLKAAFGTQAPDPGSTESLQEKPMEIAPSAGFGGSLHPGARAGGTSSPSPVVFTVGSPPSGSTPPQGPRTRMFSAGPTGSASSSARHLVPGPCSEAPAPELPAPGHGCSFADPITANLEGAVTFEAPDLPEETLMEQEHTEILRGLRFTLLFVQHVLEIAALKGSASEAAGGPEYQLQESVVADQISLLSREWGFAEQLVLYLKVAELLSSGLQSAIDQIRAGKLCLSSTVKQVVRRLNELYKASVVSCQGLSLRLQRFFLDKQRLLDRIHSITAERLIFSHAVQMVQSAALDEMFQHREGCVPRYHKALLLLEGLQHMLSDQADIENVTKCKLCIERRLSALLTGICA

[7] = test system: Epidermal growth factor receptor (Homo sapiens), P00533 [L858R]; assay: Inhibition of EGFR L858R mutant (unknown origin) assessed as residual activity at 100 nM by KINOMEscan analysis relative to control
[8] = molecular target: T2, Mitogen-activated protein kinase kinase kinase 7 (Homo sapiens) (UniProt O43318); assay: Inhibition of TAK1 (unknown origin) assessed as residual activity at 100 nM by KINOMEscan analysis relative to control
T2 sequence (whole entry): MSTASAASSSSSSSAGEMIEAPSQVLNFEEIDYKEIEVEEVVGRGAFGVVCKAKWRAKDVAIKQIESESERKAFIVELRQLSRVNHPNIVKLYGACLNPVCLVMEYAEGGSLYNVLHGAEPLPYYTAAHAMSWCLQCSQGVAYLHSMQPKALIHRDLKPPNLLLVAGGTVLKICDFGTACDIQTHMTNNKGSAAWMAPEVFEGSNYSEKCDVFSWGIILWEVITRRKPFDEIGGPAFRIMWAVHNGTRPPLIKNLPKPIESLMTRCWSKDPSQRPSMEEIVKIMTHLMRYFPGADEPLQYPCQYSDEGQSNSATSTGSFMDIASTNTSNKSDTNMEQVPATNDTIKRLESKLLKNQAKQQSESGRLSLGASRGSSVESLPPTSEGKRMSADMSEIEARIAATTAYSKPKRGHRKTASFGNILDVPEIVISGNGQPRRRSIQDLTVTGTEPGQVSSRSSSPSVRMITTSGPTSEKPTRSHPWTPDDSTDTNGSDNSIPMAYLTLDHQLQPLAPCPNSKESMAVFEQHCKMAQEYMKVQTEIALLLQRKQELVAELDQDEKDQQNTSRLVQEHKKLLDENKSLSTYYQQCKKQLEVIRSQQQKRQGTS

Sequence of Tyrosine-protein kinase receptor UFO (Homo sapiens) (P30530 whole entry): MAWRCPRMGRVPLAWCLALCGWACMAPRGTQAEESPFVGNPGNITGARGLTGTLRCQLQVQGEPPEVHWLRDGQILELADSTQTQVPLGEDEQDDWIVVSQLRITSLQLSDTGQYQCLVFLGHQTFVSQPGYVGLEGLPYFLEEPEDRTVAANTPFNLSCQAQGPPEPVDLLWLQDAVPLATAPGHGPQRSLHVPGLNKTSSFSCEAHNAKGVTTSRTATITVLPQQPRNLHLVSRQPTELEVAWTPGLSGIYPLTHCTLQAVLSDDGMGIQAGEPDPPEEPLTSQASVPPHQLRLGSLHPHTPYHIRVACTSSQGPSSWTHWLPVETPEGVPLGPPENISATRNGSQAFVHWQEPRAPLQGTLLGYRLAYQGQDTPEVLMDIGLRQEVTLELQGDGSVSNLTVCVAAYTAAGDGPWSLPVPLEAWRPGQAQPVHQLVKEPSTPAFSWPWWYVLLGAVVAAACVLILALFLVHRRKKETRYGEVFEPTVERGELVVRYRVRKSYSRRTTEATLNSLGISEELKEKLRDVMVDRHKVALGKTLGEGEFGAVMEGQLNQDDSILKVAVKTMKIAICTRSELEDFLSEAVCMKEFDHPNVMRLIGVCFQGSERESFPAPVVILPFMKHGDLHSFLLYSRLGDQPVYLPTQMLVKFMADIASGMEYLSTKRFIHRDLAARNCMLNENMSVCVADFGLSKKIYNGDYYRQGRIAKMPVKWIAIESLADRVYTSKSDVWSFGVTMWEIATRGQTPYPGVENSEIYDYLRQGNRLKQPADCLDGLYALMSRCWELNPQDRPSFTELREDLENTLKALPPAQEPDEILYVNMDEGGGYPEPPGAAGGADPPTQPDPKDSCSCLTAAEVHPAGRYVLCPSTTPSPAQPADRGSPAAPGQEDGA

COc1cc2ncnc(N[C@H](C)c3cccc4ccccc34)c2cc1OC
Activity [1]: 86%
Activity [2]: 100%
Activity [3]: 83%
Activity [4]: 94%
Activity [5]: 100%
Activity [6]: 96%
Activity [7]: 95%
Activity [8]: 83%

From ChEMBL document CHEMBL5678818, “Discovery of potent SOS1 inhibitors that block RAS activation via disruption of the RAS-SOS1 interaction” (Proc Natl Acad Sci U S A, 2019)
